According to PubChem BioAssay (NCI):
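Interpolation was linear, between the two tested concentrations surrounding the appropriate level; five concentrations were tested over 48 hours in 96-well plates. At the GI50, growth is halved. Definition used: TGI = concentration required for complete inhibition of growth.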

Tests used:
Assay in all cases: growth of human tumour cells (NCI), 48 h
UO-31 renal = system: UO-31 renal
RXF 393 renal = system: RXF 393 renal
M14 melanoma = system: M14 melanoma
NCI-H23 lung = system: NCI-H23 lung
PC-3 prostate = system: PC-3 prostate
UACC-257 melanoma = system: UACC-257 melanoma
HL-60(TB) leukemia = system: HL-60(TB) leukemia
SK-MEL-2 melanoma = system: SK-MEL-2 melanoma
LOX IMVI melanoma = system: LOX IMVI melanoma
UACC-62 melanoma = system: UACC-62 melanoma
CAKI-1 renal = system: CAKI-1 renal
SNB-75 CNS = system: SNB-75 CNS
OVCAR-5 ovarian = system: OVCAR-5 ovarian
OVCAR-3 ovarian = system: OVCAR-3 ovarian
SF-268 CNS = system: SF-268 CNS
MDA-MB-435 = system: MDA-MB-435
ACHN renal = system: ACHN renal
SN12C renal = system: SN12C renal
HOP-92 NSCLC = system: HOP-92 NSCLC
EKVX NSCLC = system: EKVX NSCLC
BT-549 breast = system: BT-549 breast
HS 578T breast = system: HS 578T breast
SK-MEL-5 melanoma = system: SK-MEL-5 melanoma
SK-MEL-28 melanoma = system: SK-MEL-28 melanoma
SF-539 CNS = system: SF-539 CNS
A498 renal = system: A498 renal
NCI-H460 lung = system: NCI-H460 lung
NCI/ADR-RES ovarian = system: NCI/ADR-RES ovarian
DU-145 prostate = system: DU-145 prostate
MALME-3M melanoma = system: MALME-3M melanoma
TK-10 renal = system: TK-10 renal
SK-OV-3 ovarian = system: SK-OV-3 ovarian
SF-295 CNS = system: SF-295 CNS
MDA-MB-231 breast = system: MDA-MB-231 breast

Compound `CC1=CC[C@@H]2CC[C@]3(C)[C@H](CC[C@@H]4[C@@]5(C)CCCNC(C)(C)[C@@H]5CC[C@]43C)[C@H]2[C@@H]1C` has a GI50 (UO-31 renal) of 1470 nM, a TGI (UO-31 renal) of 2820 nM and a GI50 (RXF 393 renal) of 1610 nM. The TGI (RXF 393 renal) was 3100 nM, the GI50 (M14 melanoma) was 1730 nM and the TGI (M14 melanoma) was 3260 nM. The GI50 (NCI-H23 lung) was 1780 nM, the TGI (NCI-H23 lung) was 3370 nM and the GI50 (PC-3 prostate) was 1580 nM. The TGI (PC-3 prostate) was 3020 nM, the GI50 (UACC-257 melanoma) was 1860 nM and the TGI (UACC-257 melanoma) was 3630 nM. The GI50 (HL-60(TB) leukemia) was 1700 nM, the TGI (HL-60(TB) leukemia) was 3500 nM and the GI50 (SK-MEL-2 melanoma) was 1810 nM. The TGI (SK-MEL-2 melanoma) was 3480 nM, the GI50 (LOX IMVI melanoma) was 1660 nM and the TGI (LOX IMVI melanoma) was 3010 nM. The GI50 (UACC-62 melanoma) was 1770 nM, the TGI (UACC-62 melanoma) was 3220 nM and the GI50 (CAKI-1 renal) was 1690 nM. For the same compound, the TGI (CAKI-1 renal) was 3050 nM, the GI50 (SNB-75 CNS) was 1980 nM and the TGI (SNB-75 CNS) was 3840 nM. For the same compound, the GI50 (OVCAR-5 ovarian) was 1670 nM, the TGI (OVCAR-5 ovarian) was 3070 nM and the GI50 (OVCAR-3 ovarian) was 1910 nM. It also gave a TGI (OVCAR-3 ovarian) of 3370 nM, a GI50 (SF-268 CNS) of 1970 nM and a TGI (SF-268 CNS) of 3710 nM. The GI50 (MDA-MB-435) was 1850 nM, the TGI (MDA-MB-435) was 3280 nM and the GI50 (ACHN renal) was 1760 nM. It also gave a TGI (ACHN renal) of 3140 nM, a GI50 (SN12C renal) of 1830 nM and a TGI (SN12C renal) of 3440 nM. The GI50 (HOP-92 NSCLC) was 1390 nM, the TGI (HOP-92 NSCLC) was 2770 nM and the GI50 (EKVX NSCLC) was 1740 nM. For the same compound, the TGI (EKVX NSCLC) was 3380 nM, the GI50 (BT-549 breast) was 1660 nM and the TGI (BT-549 breast) was 3140 nM. For the same compound, the GI50 (HS 578T breast) was 1790 nM, the TGI (HS 578T breast) was 4040 nM and the GI50 (SK-MEL-5 melanoma) was 1700 nM. The TGI (SK-MEL-5 melanoma) was 3080 nM, the GI50 (SK-MEL-28 melanoma) was 1810 nM and the TGI (SK-MEL-28 melanoma) was 3320 nM. For the same compound, the GI50 (SF-539 CNS) was 1690 nM, the TGI (SF-539 CNS) was 3130 nM and the GI50 (A498 renal) was 1870 nM. The TGI (A498 renal) was 3600 nM, the GI50 (NCI-H460 lung) was 1480 nM and the TGI (NCI-H460 lung) was 3090 nM. The GI50 (NCI/ADR-RES ovarian) was 1840 nM, the TGI (NCI/ADR-RES ovarian) was 3520 nM and the GI50 (DU-145 prostate) was 1980 nM. It also gave a TGI (DU-145 prostate) of 3550 nM, a GI50 (MALME-3M melanoma) of 1770 nM and a TGI (MALME-3M melanoma) of 3480 nM. It also gave a GI50 (TK-10 renal) of 1810 nM, a TGI (TK-10 renal) of 3370 nM and a GI50 (SK-OV-3 ovarian) of 1890 nM. It also gave a TGI (SK-OV-3 ovarian) of 3500 nM, a GI50 (SF-295 CNS) of 1870 nM and a TGI (SF-295 CNS) of 3420 nM. The GI50 (MDA-MB-231 breast) was 1800 nM and the TGI (MDA-MB-231 breast) was 3470 nM.
